Reference: patent US20250333745A1, “METHODS AND COMPOSITIONS FOR TREATMENT OF POLYCYSTIC KIDNEY DISEASE” (Regulus Therapeutics Inc., priority 2016, published 2025)

What was measured:
[1] = In vivo study of research tool compound (proinflammatory effect)
Method: Further, the research tool compound was not sufficiently efficacious for development as a pharmaceutical agent for the treatment of PKD. Accordingly, a screen was performed to identify inhibitors of one or more miR-17 family members that are sufficiently efficacious, convenient to administer, and safe for administration to subjects with PKD. An additional criterion was a sufficiently high kidney-to-liver delivery ratio, to enhance the proportion of anti-miR-17 compound that is delivered to the target organ.

miR-17 family = test: In vitro assays of tool compound against miR-17 family
Method: (§1) Previous studies using a research tool anti-miR-17 compound identified a role for miR-17 in PKD in two different models of PKD, the Pkd2-KO model (also known as the Pkhd1/cre; Pkd2^F/F model) and the Pcy model. The research tool modified oligonucleotide complementary to miR-17 was tested in mouse models of PKD. The anti-miR-17 compound was a fully phosphorothioated oligonucleotide 19 linked nucleosides in length (5′-CTGCACTGTAAGCACTTTG-3′; SEQ ID NO: 7), with DNA, 2′-MOE and S-cEt sugar moieties.

Pcy mice = test: Previous study of tool anti-miR-17 in Pcy mice; assay type: in vivo, mouse; details: 50 mg/kg once weekly for 26 weeks
Method: as §1
Pcy mice bearing a mutation in Nphp3 spontaneously develop polycystic kidney disease, with a slower progression of disease than that observed in the Pkd2-KO mice. Mice were treated with 50 mg/kg of tool anti-miR-17 compound, or with PBS, once weekly for a total of 26 weeks. The mean ratio of kidney weight to body weight in the Pcy mice treated with anti-miR-17 was 19% lower than the mean ratio of kidney weight to body weight in the Pcy mice administered PBS only (p=0.0003).

IFIT3 expression = test: Ex vivo liver slice assay; assay type: cell-based; details: rat liver slice; 24-hour incubation; relative to PBS
Method: In in vitro assays, the potential for toxicity was assessed using a biochemical fluorescent binding assay (FBA) and a liver or kidney slice assay. The FBA is performed by incubating a fluorescent dye with each compound, and immediately measuring fluorescence. Highly fluorescent compounds have the potential to produce toxicity in vivo. The liver or kidney slice assay is performed by incubating a slice of tissue from a core liver sample isolated from rat. Following a 24-hour incubation, RNA is extracted from the tissue slice, and the expression levels of 18 pro-inflammatory genes are measured. An induction in pro-inflammatory gene expression indicates a potential for pro-inflammatory effects in vivo.
Ex vivo assays were performed with liver or kidney tissue slices. The liver or kidney slice assay is performed by incubating a slice of tissue from a core liver or kidney sample isolated from rat. Following a 24-hour incubation, RNA is extracted from the tissue slice, and the expression levels of 18 pro-inflammatory genes, including IFIT, are measured. A log 2 transformation of the fold change (Log2-FC) relative to PBS treatment was performed. An induction in pro-inflammatory gene expression indicates a potential for pro-inflammatory effects in vivo.

Viscosity = assay type: physicochemical; details: approximately 150 mg/mL in water at 20° C.
Method: RG4326 has the following sequence and chemical modification pattern: ASGSCMAFCFUFUMUSGS where nucleosides followed by subscript “M” are 2′-O-methyl nucleosides, nucleosides followed by subscript “F” are 2′-fluoro nucleosides, nucleosides followed by subscript “S” are S-cEt nucleosides, each cytosine is a non-methylated cytosine and all linkages are phosphorothioate linkages. […] Additionally, the viscosity of RG4326 was determined to be 6 cP at a concentration of approximately 150 mg/mL (in water at 20° C.), thus RG4326 in solution is suitable for administration by subcutaneous injection.

IFIT = test: In vivo acute assay in Sv129 mice; parameters: species or system mouse; details: single s.c. 300 mg/kg, four days, relative to PBS
Method: Additional in vivo toxicology assessments were performed by administering to normal mice (Sv129 mice) a single subcutaneous injection of 300 mg/kg of anti-miR-17 compound. After four days, mice were sacrificed, blood was collected for serum chemistry analysis, liver and spleen were weighed, and RNA was isolated from kidney and liver tissues. The expression level of a pro-inflammatory gene, interferon-induced protein with tetratricopeptide repeats (IFIT), was measured.
An in vivo assay was performed in normal, Sv129 mice. A single, subcutaneous dose of 300 mg/kg of RG4326 was administered. Included as control treatments were PBS, and two anti-miRs not related to miR-17, one known to be pro-inflammatory (positive control) and one that is not pro-inflammatory (negative control). Four days later, mice were sacrificed. Kidney and liver tissue was isolated for RNA extraction. The level of a gene known to be induced during an inflammatory response, IFIT, was measured and normalized to mouse GAPDH. A log 2 transformation of the fold change (Log2-FC) relative to PBS treatment was performed.

[2] = Tissue accumulation in kidney and liver (kidney-to-liver ratio); assay type: in vivo, mouse; details: single dose 30 mg/kg, seven days
Method: Pharmacokinetic properties and tissue distribution of select compounds were assessed in wild type C57BL6 mice and JCK mice (an experimental model of PKD). Compound was administered to wild type mouse at a dose of 0.3, 3, or 30 mg/kg, or to JCK mice at a dose of 3, 30, or 100 mg/kg. After seven days, mice were sacrificed. Kidney and liver tissues were collected. Concentration of anti-miR-17 compound was measured in liver and kidney. Compounds that accumulate to a greater level in kidney, relative to liver (i.e., have a higher kidney-to-liver ratio) were preferred.
The miPSA was used to assess the potency of each compound, measured by the displacement score, in wild type and JCK mice. Tissue accumulation of anti-miR-17 compound was measured by extraction of compound using liquid-liquid extraction (LLE) and/or solid-phase extraction (SPE), followed by analysis of the identity and concentration of compound using ion-pairing-reversed-phase high performance liquid chromatography coupled with time-of-flight mass spectrometry (IP—RP-HPLC-TOF).
Wild type mice were administered a single dose of 3 mg/kg for the miPSA analysis, and a single dose of 30 mg/kg for the tissue accumulation analysis. JCK mice were administered a single dose of 30 mg/kg for both the miPSA and tissue accumulation analyses. Kidney tissue was collected seven days following the administration of anti-miR-17 compound. […] A higher kidney-to-liver ratio is generally preferred for a disease where the primary site of action is the kidney.

Compound	proinflammatory effect (in words) [1]	inhibition of miR-17 family members (in words) (miR-17 family)	mean ratio of kidney weight to body weight lower than PBS only (Pcy mice; p=0.0003) [%]	mean reduction in cyst index compared to PBS only (Pcy mice; p=0.008) [%]	Ex Vivo Liver Slices Assay IFIT3 expression (Log2-FC) (IFIT3 expression)	viscosity (Viscosity) [cP]	In Vivo Acute Assay Kidney IFIT expression (Log2-FC) (IFIT)	In Vivo Acute Assay Liver IFIT expression (Log2-FC) (IFIT)	Kidney-to-Liver Ratio PKD Mice ([2]; JCK mice)	Kidney-to-Liver Ratio Wild Type Mice ([2]; wild type mice)
5′-CTGCACTGTAAGCACTTTG-3′ (all phosphorothioate, sugars by position and methylation of C not given here; DNA, 2'-MOE and S-cEt sugars) [Tool anti-miR-17, reference compound]	slightly proinflammatory	hybridizes to and inhibits all members of the miR-17 family	19	28						
COC1C(OP(=O)(S)OC[C@H]2O[C@@H](n3cnc4c(N)ncnc43)C(F)C2OP(=O)(S)OC[C@H]2O[C@@H](n3ccc(N)nc3=O)C(F)C2OP(=O)(S)OC[C@H]2O[C@@H](n3ccc(=O)[nH]c3=O)C(F)C2OP(=O)(S)OC[C@H]2O[C@@H](n3ccc(=O)[nH]c3=O)C(OC)C2OP(=O)(S)OC[C@]23O[C@@H](n4ccc(=O)[nH]c4=O)C(O[C@H]2C)C3OP(=O)(S)OC[C@]23O[C@@H](n4cnc5c(=O)[nH]c(N)nc54)C(O[C@H]2C)C3O)[C@@H](COP(=O)(S)OC2C3O[C@@H](C)[C@]2(COP(=O)(S)OC2C4O[C@@H](C)[C@]2(CO)O[C@H]4n2cnc4c(N)ncnc42)O[C@H]3n2cnc3c(=O)[nH]c(N)nc32)O[C@H]1n1ccc(N)nc1=O (stereo in doubt) [RG4326, ASGSCMAFCFUFUMUSGS]					1.11 ± 0.32	6	0.34 (n = 1) Log2-FC	0.21 ± 0.08	6.0	9.8
